Type in all cases: biochemical
Assay [1] addresses T1, MT-Ox (zgc:113054) (Danio rerio, UniProt A0ACM8Q6W2).
T1 construct: gene wu:fd55e12; bifunctional full-length protein (N-terminal SAM methyltransferase domain, C-terminal NAD+ oxidoreductase domain), N-terminal His6 tag (pRSET-B), codon-optimised, E. coli, Ni-NTA purified
T1 sequence (A0ACM8Q6W2 1-551): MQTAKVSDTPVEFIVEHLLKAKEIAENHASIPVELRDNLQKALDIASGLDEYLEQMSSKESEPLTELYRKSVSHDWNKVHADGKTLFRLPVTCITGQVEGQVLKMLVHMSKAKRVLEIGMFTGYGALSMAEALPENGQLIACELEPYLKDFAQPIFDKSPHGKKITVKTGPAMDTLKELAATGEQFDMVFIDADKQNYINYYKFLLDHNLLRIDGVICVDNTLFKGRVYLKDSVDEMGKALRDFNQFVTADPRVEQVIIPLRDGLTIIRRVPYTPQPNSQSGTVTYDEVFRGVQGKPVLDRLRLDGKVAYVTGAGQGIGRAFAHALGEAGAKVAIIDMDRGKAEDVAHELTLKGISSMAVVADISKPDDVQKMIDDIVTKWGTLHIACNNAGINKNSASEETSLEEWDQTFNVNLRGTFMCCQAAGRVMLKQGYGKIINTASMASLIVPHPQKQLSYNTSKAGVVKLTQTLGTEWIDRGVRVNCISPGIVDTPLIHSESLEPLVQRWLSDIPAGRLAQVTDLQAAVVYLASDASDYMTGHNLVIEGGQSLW
The experiment in a line: product (gadusol) detection by (-)-ESI-MS. The note with it: SAM and NAD+ present; 30 °C.

The next assay deals with T2, ValA (ShEEVS) (Streptomyces hygroscopicus, UniProt H2K887).
T2 construct: N-terminal His6 tag (pRSETB-valA), expressed in E. coli BL21 GOLD (DE3) pLysS, Ni-NTA purified
T2 sequence (H2K887 whole entry): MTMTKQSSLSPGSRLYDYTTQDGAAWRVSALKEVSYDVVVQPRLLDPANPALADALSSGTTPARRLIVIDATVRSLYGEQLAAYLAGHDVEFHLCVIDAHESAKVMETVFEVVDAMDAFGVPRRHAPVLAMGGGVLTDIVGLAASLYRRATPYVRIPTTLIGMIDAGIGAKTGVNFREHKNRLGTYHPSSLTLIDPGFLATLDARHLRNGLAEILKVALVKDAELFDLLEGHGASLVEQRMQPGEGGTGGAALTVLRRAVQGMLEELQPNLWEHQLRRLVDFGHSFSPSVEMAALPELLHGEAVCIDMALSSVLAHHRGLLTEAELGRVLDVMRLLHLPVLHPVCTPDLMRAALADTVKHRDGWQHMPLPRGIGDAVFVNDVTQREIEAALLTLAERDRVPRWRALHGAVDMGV
The experiment in a line: TLC and GC-MS of product. The note with it: positive control enzyme; 4 mM SH7P, 1 mM NAD+, 0.1 mM CoCl2 or ZnSO4, 20 mM Tris-HCl pH 7.5, 30 °C, 2 h.

In assay [2] the target is T3, LOC100003999 (zebrafish EEVS, DrEEVS) (Danio rerio, UniProt A0ACD6B5C7).
T3 construct: N-terminal His6 tag (pRSET-B), codon-optimised synthetic gene, expressed in E. coli BL21 GOLD (DE3) pLysS, Ni-NTA purified
T3 sequence (A0ACD6B5C7 1-470): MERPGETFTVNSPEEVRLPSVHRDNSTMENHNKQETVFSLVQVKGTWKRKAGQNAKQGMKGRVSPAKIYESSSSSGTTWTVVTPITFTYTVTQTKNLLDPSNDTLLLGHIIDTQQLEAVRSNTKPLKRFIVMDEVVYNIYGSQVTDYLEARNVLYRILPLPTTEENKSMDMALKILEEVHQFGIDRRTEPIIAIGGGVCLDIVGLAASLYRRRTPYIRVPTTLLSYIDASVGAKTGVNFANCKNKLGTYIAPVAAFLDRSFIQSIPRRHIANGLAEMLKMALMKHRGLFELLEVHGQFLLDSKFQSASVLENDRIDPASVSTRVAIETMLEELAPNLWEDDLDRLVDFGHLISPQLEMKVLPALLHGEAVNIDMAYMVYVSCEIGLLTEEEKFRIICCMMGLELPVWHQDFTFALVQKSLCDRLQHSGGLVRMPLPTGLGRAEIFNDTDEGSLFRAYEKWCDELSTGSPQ
The experiment in a line: TLC; GC-MS of silylated product against authentic EEV (cell-free extract). The note with it: 4 mM SH7P, 1 mM NAD+, 0.1 mM CoCl2 or ZnSO4, pH 7.5, 30 °C.

Assay [3] deals with T1, MT-Ox (zgc:113054). The experiment in a line: product (gadusol) detection by HPLC-UV and (-)-ESI-MS. The note with it: methyl donor, 5 mM; NAD+ 2 mM, CoCl2 0.2 mM, phosphate pH 7.4, 30 °C.
Assay [4] has as its target T3, LOC100003999 (zebrafish EEVS, DrEEVS). As to the kind of experiment: product detection by TLC; GC-MS with cell-free extract. The note with it: 4 mM SH7P, 1 mM NAD+, 0.1 mM CoCl2 or ZnSO4, 20 mM Tris-HCl pH 7.5, 30 °C, 2 h.

Take `O=C1C[C@@](O)(CO)[C@@H](O)[C@H](O)[C@@H]1O` [2-epi-5-epi-valiolone]: the “product (gadusol) detection by (-)-ESI-MS” value on MT-Ox (zgc:113054) [1] is “Synthetic EEV incubated with purified MT-Ox”. For the same compound, at ValA (ShEEVS), the “TLC and GC-MS of product” value was “TLC analysis of enzymatic products of purified ValA and purified LOC100003999”. Moreover, the “TLC; GC-MS of silylated product against authentic EEV (cell-free extract)” value in assay [2] is “confirmed by thin-layer chromatography (TLC) and GC-MS to be EEV”.
Turning to `C[S+](CC[C@H](N)C(=O)O)C[C@H]1O[C@@H](n2cnc3c(N)ncnc32)[C@H](O)[C@@H]1O` (stereo partly drawn) [S-adenosylmethionine], at MT-Ox (zgc:113054) [3], the “product (gadusol) detection by HPLC-UV and (-)-ESI-MS” value was “incubated with EEV in the presence of SAM and NAD^+”.
On to `O=P(O)(O)OC[C@@H](O)[C@H]1OC(O)(CO)[C@@H](O)[C@@H]1O` (stereo partly drawn) [sedoheptulose 7-phosphate], for which the “product detection by TLC; GC-MS with cell-free extract” value in assay [4] was “Incubation of the recombinant protein with SH7P gave a product”. For the same compound, the “TLC and GC-MS of product” value at ValA (ShEEVS) is recorded as “ValA (instead of LOC100003999) was used as a positive control”.

The record behind these values is article PMC4426668, “De novo synthesis of a sunscreen compound in vertebrates” (eLife, 2015).
